Assay results from patent publication US20250059217A1, “HETEROCYCLIC COMPOUNDS AND METHODS OF PREPARATION THEREOF” (priority 2021, published 2025).

Assays:
5-HT2A receptor = target: T1, 5-HT2A receptor (Homo sapiens, UniProt P28223); experiment: Serotonin receptor 5-HT2 functional assay (Gq dissociation BRET or Gq-dependent calcium flux), 5-HT2A; format: cell-based; settings: Table 5, 5-HT2A receptor, compared with psilocin
T1 construct: expressed in transfected cells; host or cells: HEK293T

5-HT6 receptor = 5-HT6 receptor (Homo sapiens, UniProt P50406); experiment: Functional activity at other receptor sites relative to psilocin (Table 5), 5-HT6; settings: for 5-HT6 Eff %: Table 5, 5-HT6 receptor, compared with psilocin
other receptor sites [1] = target: other receptor sites (Homo sapiens, UniProt P34969); experiment: Functional activity at other receptor sites relative to psilocin (Table 5), further receptors; settings: read-out: 5-HT7 EC50, 5-HT7 receptor, compared with psilocin
other receptor sites [2] = experiment: as above; settings: compared with psilocin; for 5-HT1A Eff %: 5-HT1A receptor; for 5-HT1B Eff %: 5-HT1B receptor; for 5-HT1D Eff %: 5-HT1D receptor; for 5-HT1E Eff %: 5-HT1E receptor; for 5-HT4 Eff %: 5-HT4 receptor; for 5-HT5A Eff %: 5-HT5A receptor; for 5-HT7 Eff %: 5-HT7 receptor
other receptor sites [3] = target: other receptor sites (Homo sapiens, UniProt Q13639); experiment: as above; settings: read-out: 5-HT4 EC50, 5-HT4 receptor, compared with psilocin
5-HT2B receptor = target: T2, 5-HT2B receptor (Homo sapiens, UniProt P41595); experiment: Serotonin receptor 5-HT2 functional assay (Gq dissociation BRET or Gq-dependent calcium flux), 5-HT2B; format: cell-based; settings: Table 5, 5-HT2B receptor, compared with psilocin
T2 construct: expressed in transfected cells; host or cells: HEK293T

5-HT1F receptor = target: T3, 5-HT1F receptor (Homo sapiens, UniProt P30939); experiment: Functional activity at other receptor sites relative to psilocin (Table 5), 5-HT1F; settings: for 5-HT1F Eff %: Table 5, 5-HT1F receptor, compared with psilocin
T3 sequence (P30939 1-366): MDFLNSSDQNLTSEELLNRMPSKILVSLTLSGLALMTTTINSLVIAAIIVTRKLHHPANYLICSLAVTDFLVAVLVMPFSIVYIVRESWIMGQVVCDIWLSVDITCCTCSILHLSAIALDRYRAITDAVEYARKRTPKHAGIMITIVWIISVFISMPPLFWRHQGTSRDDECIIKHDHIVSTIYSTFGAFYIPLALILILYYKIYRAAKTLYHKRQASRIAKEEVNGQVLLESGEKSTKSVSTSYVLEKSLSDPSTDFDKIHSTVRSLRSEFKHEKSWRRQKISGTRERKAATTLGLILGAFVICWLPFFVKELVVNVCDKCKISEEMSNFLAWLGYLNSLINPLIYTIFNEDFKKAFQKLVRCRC

other receptor sites [4] = target: other receptor sites (Homo sapiens, UniProt P47898); experiment: Functional activity at other receptor sites relative to psilocin (Table 5), further receptors; settings: read-out: 5-HT5A EC50, 5-HT5A receptor, compared with psilocin
other receptor sites [5] = target: other receptor sites (Homo sapiens, UniProt P28222); experiment: as above; settings: read-out: 5-HT1B EC50, 5-HT1B receptor, compared with psilocin
other receptor sites [6] = target: other receptor sites (Homo sapiens, UniProt P28221); experiment: as above; settings: read-out: 5-HT1D EC50, 5-HT1D receptor, compared with psilocin
other receptor sites [7] = target: other receptor sites (Homo sapiens, UniProt P28566); experiment: as above; settings: read-out: 5-HT1E EC50, 5-HT1E receptor, compared with psilocin
other receptor sites [8] = target: T4, other receptor sites (Homo sapiens, UniProt P08908); experiment: as above; settings: read-out: 5-HT1A EC50, 5-HT1A receptor, compared with psilocin
T4 sequence (P08908 1-422): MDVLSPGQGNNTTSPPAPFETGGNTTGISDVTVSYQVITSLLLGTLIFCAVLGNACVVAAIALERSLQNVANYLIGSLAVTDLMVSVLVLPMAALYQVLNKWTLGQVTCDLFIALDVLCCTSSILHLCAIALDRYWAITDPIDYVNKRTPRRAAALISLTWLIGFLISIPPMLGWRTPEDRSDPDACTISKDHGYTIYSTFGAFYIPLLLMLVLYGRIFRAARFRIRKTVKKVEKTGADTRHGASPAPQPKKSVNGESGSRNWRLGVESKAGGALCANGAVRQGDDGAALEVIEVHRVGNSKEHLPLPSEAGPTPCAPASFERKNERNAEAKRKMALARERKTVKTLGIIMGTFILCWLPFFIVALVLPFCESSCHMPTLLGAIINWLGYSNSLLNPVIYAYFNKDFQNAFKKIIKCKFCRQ

5-HT2C receptor = target: T5, 5-HT2C receptor (Homo sapiens, UniProt P28335); experiment: cell-based; settings: Table 5, 5-HT2C receptor, compared with psilocin
T5 construct: expressed in transfected cells; host or cells: HEK293T
T5 sequence (P28335 33-458): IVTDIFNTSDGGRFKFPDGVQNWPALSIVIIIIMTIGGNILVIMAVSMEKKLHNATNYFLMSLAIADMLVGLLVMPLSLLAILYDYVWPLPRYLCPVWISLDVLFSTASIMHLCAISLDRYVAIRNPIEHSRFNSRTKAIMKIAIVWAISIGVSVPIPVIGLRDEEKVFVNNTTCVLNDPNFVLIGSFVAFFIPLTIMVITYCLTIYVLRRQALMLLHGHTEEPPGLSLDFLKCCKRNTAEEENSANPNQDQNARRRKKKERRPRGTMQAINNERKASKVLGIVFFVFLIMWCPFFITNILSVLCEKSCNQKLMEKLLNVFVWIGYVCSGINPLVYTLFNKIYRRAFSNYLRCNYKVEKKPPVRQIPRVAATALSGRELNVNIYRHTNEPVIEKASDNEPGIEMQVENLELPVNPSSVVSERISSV

5-HT6 receptor, sequence (P50406 whole entry): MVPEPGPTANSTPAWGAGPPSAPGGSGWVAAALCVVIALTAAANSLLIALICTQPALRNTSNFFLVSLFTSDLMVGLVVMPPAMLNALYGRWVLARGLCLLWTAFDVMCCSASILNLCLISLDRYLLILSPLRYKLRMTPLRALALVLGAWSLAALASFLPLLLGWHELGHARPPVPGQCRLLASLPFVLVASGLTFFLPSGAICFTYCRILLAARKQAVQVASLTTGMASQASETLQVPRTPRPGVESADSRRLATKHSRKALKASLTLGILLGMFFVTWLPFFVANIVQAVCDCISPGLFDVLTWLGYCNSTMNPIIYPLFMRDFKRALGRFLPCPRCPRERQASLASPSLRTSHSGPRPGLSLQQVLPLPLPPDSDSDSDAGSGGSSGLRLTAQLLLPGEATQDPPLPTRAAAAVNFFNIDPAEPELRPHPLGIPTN
T1 sequence (P28223 whole entry): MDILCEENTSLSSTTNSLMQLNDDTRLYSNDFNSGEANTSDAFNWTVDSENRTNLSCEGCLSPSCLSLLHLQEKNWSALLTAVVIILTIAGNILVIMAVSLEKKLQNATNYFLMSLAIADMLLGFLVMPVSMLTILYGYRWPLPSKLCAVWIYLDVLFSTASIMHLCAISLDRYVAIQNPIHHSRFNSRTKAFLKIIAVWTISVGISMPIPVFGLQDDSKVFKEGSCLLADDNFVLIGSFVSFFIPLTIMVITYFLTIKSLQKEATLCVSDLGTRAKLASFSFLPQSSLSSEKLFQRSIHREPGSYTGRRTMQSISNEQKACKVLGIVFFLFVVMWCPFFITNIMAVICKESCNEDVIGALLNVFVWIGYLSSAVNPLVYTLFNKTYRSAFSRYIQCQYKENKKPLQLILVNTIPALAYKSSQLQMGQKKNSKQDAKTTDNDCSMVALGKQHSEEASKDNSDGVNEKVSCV
T2 sequence (P41595 whole entry): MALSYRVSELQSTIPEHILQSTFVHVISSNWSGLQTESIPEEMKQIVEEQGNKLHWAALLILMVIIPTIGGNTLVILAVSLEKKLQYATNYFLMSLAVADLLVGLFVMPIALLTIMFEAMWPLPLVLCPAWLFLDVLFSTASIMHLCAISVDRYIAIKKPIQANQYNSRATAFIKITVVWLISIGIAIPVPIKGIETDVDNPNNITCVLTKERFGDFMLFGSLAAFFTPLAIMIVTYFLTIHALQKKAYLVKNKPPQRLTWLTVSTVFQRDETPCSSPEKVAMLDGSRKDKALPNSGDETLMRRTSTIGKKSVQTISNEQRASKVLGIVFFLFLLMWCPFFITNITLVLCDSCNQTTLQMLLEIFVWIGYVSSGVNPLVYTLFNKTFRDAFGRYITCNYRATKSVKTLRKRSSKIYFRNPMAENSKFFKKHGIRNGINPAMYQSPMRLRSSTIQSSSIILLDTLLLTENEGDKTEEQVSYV
other receptor sites (Homo sapiens, UniProt P34969), sequence (P34969 whole entry): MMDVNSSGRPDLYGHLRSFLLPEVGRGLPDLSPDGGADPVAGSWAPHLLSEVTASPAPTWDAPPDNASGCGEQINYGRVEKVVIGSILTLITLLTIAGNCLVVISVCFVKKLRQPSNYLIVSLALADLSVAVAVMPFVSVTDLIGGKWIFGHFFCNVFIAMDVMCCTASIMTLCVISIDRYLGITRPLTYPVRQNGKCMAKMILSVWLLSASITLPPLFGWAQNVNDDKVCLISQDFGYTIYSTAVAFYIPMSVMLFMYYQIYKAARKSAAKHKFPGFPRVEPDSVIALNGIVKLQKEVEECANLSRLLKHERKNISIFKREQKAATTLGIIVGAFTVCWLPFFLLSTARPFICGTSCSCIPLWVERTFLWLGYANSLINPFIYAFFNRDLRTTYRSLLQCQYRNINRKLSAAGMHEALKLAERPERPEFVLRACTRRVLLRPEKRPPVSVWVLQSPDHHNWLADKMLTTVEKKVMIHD
other receptor sites (Homo sapiens, UniProt Q13639), sequence (Q13639 whole entry): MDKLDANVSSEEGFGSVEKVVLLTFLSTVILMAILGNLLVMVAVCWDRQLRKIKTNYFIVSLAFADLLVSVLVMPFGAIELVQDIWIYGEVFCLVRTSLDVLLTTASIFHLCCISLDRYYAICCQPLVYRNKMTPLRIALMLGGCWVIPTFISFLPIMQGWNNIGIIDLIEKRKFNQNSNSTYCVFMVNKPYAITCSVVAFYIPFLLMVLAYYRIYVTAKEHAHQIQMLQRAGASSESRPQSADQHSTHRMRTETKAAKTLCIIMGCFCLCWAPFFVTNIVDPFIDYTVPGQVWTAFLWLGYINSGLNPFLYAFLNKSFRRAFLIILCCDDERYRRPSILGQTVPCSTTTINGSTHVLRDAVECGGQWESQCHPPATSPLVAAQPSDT
other receptor sites (Homo sapiens, UniProt P28221), sequence (P28221 whole entry): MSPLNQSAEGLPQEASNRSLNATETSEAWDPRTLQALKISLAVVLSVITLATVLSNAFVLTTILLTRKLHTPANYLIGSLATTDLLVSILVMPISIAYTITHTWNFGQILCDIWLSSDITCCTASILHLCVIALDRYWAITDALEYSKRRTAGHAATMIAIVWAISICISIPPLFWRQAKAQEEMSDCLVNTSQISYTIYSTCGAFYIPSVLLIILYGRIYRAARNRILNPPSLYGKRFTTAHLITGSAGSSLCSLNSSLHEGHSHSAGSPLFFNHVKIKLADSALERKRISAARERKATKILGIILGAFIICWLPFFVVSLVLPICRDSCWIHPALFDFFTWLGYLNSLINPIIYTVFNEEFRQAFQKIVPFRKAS
other receptor sites (Homo sapiens, UniProt P28566), sequence (P28566 whole entry): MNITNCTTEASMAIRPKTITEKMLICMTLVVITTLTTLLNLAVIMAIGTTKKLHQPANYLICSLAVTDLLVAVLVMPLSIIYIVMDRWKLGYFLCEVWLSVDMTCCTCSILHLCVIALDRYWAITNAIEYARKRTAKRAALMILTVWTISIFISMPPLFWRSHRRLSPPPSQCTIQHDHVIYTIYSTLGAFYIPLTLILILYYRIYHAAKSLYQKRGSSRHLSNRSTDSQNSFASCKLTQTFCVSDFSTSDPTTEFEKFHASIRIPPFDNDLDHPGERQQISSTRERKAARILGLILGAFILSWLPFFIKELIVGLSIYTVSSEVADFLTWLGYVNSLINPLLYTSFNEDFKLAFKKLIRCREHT
other receptor sites (Homo sapiens, UniProt P28222), sequence (P28222 whole entry): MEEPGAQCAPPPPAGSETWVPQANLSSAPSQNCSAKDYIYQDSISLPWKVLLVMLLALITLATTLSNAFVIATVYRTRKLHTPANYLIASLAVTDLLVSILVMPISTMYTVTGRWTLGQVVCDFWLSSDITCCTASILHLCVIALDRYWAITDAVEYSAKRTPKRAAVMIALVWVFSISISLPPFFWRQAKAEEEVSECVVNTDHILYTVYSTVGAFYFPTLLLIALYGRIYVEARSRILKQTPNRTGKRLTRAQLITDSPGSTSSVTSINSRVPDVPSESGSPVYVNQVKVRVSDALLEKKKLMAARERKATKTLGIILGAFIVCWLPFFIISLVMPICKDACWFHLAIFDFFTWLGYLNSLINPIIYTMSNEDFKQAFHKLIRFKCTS
other receptor sites (Homo sapiens, UniProt P47898), sequence (P47898 whole entry): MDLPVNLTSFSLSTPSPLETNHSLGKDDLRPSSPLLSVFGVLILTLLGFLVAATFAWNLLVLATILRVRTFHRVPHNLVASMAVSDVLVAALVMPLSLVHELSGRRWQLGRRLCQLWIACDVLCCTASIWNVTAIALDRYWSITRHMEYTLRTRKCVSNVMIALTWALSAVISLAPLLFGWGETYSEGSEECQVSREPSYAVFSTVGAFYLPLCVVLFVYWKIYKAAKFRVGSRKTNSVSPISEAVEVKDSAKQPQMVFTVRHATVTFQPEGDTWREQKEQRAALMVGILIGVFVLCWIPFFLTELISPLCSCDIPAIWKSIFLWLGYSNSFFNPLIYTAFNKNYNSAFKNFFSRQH

Compound | 5-HT2A Eff % (5-HT2A receptor) [%] | EC50 (5-HT6 receptor) [nM] | 5-HT6 Eff % (5-HT6 receptor) [%] | EC50 (other receptor sites [1]) [nM] | 5-HT1A Eff % (other receptor sites [2]) [%] | 5-HT1B Eff % (other receptor sites [2]) [%] | 5-HT1D Eff % (other receptor sites [2]) [%] | 5-HT1E Eff % (other receptor sites [2]) [%] | 5-HT4 Eff % (other receptor sites [2]) [%] | 5-HT5A Eff % (other receptor sites [2]) [%] | 5-HT7 Eff % (other receptor sites [2]) [%] | EC50 (other receptor sites [3]) [nM] | 5-HT2B Eff % (5-HT2B receptor) [%] | EC50 (5-HT1F receptor) [nM] | 5-HT1F Eff % (5-HT1F receptor) [%] | also measured
CN(C)CCc1c[nH]c2cccc(O)c12 [drawing 39] | 82 | 183 | 74 | 525 | 93 | 94 | 102 | 90 | 81 | 48 | 86 | 563 | 63 | 9.3 | 93 | 
Cc1ccc(O)c2c(CCN(C)C)c[nH]c12 [drawing 38] | 73 | 9 | 48 | 5.2 | 76 | 105 | 112 | 102 | 13 | 20 | 3.4 | 257 | 16 | 23 | 92 | EC50 (5-HT2A receptor; read-out: 5-HT2A EC50): 66 nM; EC50 (other receptor sites [4]): 23 µM; EC50 (other receptor sites [5]): 309 nM; EC50 (other receptor sites [6]): 749 nM; EC50 (other receptor sites [7]): 167 nM; EC50 (other receptor sites [8]): 12.6 µM; EC50 (5-HT2B receptor; 5-HT2B EC50 (nM)): 3.6 nM; 5-HT2C Eff % (5-HT2C receptor): 79%; EC50 (5-HT2C receptor; read-out: 5-HT2C EC50): 6.9 nM
